Tested on: adolescent and adult subjects with AD
Experiment: Phase II clinical study in AD: efficacy and subject-reported outcomes
Format: in vivo, human
Settings: for itch reduction in weekly average NRS (median): Week 4; for probability of achieving EASI75 / probability of achieving IGA treatment success: model; for patients with 75% improvement in EASI score: post-hoc analysis
Text: This was a multicenter (United States, Canada, and Japan), randomized, double-blind (Sponsor-unblind), vehicle-controlled, 6-arm, parallel-group, dose-finding study in adolescent and adult subjects with AD.
The study consisted of 3 periods: up to 4 weeks screening, 12 weeks double-blind treatment, and 4 weeks post-treatment Follow-up. Study visits occurred at Screening; Baseline; Weeks 1, 2, 4, 8, and 12 during the treatment period; and 2 and 4 weeks after the last application of study treatment (i.e., at Weeks 14 and 16). Additional visits could occur, as needed, to follow-up on any skin reactions or ongoing AEs. A subject's total duration of study participation was approximately 16 to 20 weeks.
Two concentrations of Tapinarof cream (0.5% and 1%) and a vehicle control were evaluated following application to all AD lesions (except on the scalp) once or twice daily for 12 weeks. There were no planned dose adjustments during the study. It was expected that approximately 270 adolescent and adult subjects with AD would be screened to achieve 228 randomized subjects (1:1:1:1:1:1; N=3 8 for each of the 6 treatment groups) and approximately 204 evaluable subjects overall. At least 30 subjects were to be randomized in Japan to achieve at least 24 evaluable Japanese subjects. To ensure an adequate number of adolescents (aged 12 to 17 years) versus adults were represented in the overall study population, enrollment was limited to approximately 65% of either age group.
Efficacy was assessed by using a 5-point static Investigator Global Assessment (IGA) (0-4 scale), the Eczema Area and Severity Index (EASI), percent of body surface area (% BSA) involvement, severity of AD signs using a Total Severity Score (TSS), and by subject-reported itch/pruritus severity using a numeric rating scale (NRS) (from the Daily Sign and Symptom Severity Diary). Additional subject-reported outcomes included the expanded Patient-Oriented Eczema Measure (POEM), a Daily Sign and Symptom Severity Diary, and subject impression of severity of eczema symptoms and overall change in severity of eczema symptoms and overall change in itch/pruritus items. There was also an investigator global impression of change item.
Investigator's Global Assessment: The IGA is a clinical tool for assessing the current state/severity of a subject's AD. It is a static 5-point morphological assessment of overall disease severity, as determined by the investigator, using the clinical characteristics of erythema, infiltration, papulation, oozing, and crusting as guidelines. At each specified time point, the IGA was made without reference to previous scores. Scoring system ranges from 0 (=Clear) to 4 (=Severe).
Eczema Area and Severity Index: The EASI scoring system is a standard clinical tool for assessing the severity of AD that takes into account the overall severity of erythema, infiltration/papulation, excoriation, and lichenification, as well as the extent of BSA affected with AD. The 4 clinical signs are each graded on a 4-point scale (0 to 3) for each of the 4 specified body regions (head and neck, upper extremities, lower extremities, and trunk). The EASI is a static assessment made without reference to previous scores.
Body Surface Area: The extent of BSA affected by AD is a general indicator of disease severity and was measured throughout the study. The extent of BSA to which study treatment was applied was also recorded. For the purpose of approximate clinical estimation, the total palmar surface of the palm plus 5 digits was assumed to be approximately equivalent to 1% BSA.
Total Severity Score: A single target lesion that measured at least 3 cm at Screening and Baseline and was representative of subject disease, but not located on hands, feet or genitalia, was selected at Baseline to assess efficacy in treating a discrete area rather than an overall average of all areas. […]

[1] = 0.5% BID, Week 8, interim analysis
[2] = 0.5% QD, Week 8, interim analysis
[3] = 1% BID, Week 8, interim analysis
[4] = 1% QD, Week 8, interim analysis

SMILES: CC(C)c1c(O)cc(/C=C/c2ccccc2)cc1O [Tapinarof, 3,5-Dihydroxy-4-isopropyl-trans-stilbene]
- EASI75 responders who maintained response from Week 12 to Week 16 (0.5% BID): 82%
- difference in probability of achieving EASI75 vs vehicle (0.5% BID): 42.6%
- itch reduction in weekly average NRS (median) (0.5% BID, interim analysis): −53.00%
- IGA response rate (IGA 0 or 1 and ≥2-grade improvement) [1]: 35%
- subjects with 75% reduction in EASI from Baseline [1]: 59%
- difference in probability of IGA response vs vehicle (0.5% BID, Week 12): 22.4%
- expanded POEM item 8 (nights woken because of eczema), mean change (0.5% BID, Week 12): −1.3
- patients with minimum three-point improvement in itch NRS (0.5% BID, Week 12): 33%
- subjects reporting severity of AD symptoms as very improved (0.5% BID, Week 12): 47%
- IGA response rate (IGA 0 or 1 and ≥2-grade improvement) (0.5% BID, Week 12, NRI): 37%
- probability of achieving EASI75 (0.5% BID, Week 12): 54.2%
- probability of achieving IGA treatment success (0.5% BID, Week 12): 28.7%
- difference in probability of achieving EASI75 vs vehicle (0.5% QD): 28.9%
- itch reduction in weekly average NRS (median) (0.5% QD, interim analysis): −53.57%
- IGA response rate (IGA 0 or 1 and ≥2-grade improvement) [2]: 40%
- subjects with 75% reduction in EASI from Baseline [2]: 35%
- difference in probability of IGA response vs vehicle (0.5% QD, Week 12): 15.7%
- expanded POEM item 8 (nights woken because of eczema), mean change (0.5% QD, Week 12): −1.2
- patients with minimum three-point improvement in itch NRS (0.5% QD, Week 12): 29%
- subjects reporting severity of AD symptoms as very improved (0.5% QD, Week 12): 40%
- IGA response rate (IGA 0 or 1 and ≥2-grade improvement) (0.5% QD, Week 12, NRI): 34%
- probability of achieving EASI75 (0.5% QD, Week 12): 32.6%
- probability of achieving IGA treatment success (0.5% QD, Week 12): 18.3%
- proportion of subjects with IGA treatment success (0.5% QD, Week 12, primary analysis): 40%
- subjects rating pruritus symptoms very improved or moderately improved (0.5% groups, Week 12): 80-81%
- EASI75 responders who maintained response from Week 12 to Week 16 (1% BID): 63%
- difference in probability of achieving EASI75 vs vehicle (1% BID): 74.5%
- itch reduction in weekly average NRS (median) (1% BID, interim analysis): −56.35%
- IGA response rate (IGA 0 or 1 and ≥2-grade improvement) [3]: 35%
- subjects with 75% reduction in EASI from Baseline [3]: 45%
- absolute change in percent BSA affected from baseline (mean) (1% BID, Week 12): 11.2
- difference in probability of IGA response vs vehicle (1% BID, Week 12): 61.5%
- patients rating itch moderately improved to very improved (1% BID, Week 12): 78%
- patients with minimum three-point improvement in itch NRS (1% BID, Week 12): 30%
- reduction in total severity score (mean change) (1% BID, Week 12): 5.8
- subjects reporting severity of AD symptoms as very improved (1% BID, Week 12): 64%
- IGA response rate (IGA 0 or 1 and ≥2-grade improvement) (1% BID, Week 12, NRI): 53%
- probability of achieving EASI75 (1% BID, Week 12): 86.0%
- probability of achieving IGA treatment success (1% BID, Week 12): 67.7%
- patients with 75% improvement in EASI score (1% BID, Week 12): 60%
- EASI75 responders who maintained response from Week 12 to Week 16 (1% QD): 57%
- difference in probability of achieving EASI75 vs vehicle (1% QD): 77.0%
- itch reduction in weekly average NRS (median) (1% QD, interim analysis): −57.14%
- IGA response rate (IGA 0 or 1 and ≥2-grade improvement) [4]: 74%
- subjects with 75% reduction in EASI from Baseline [4]: 63%
- absolute change in percent BSA affected from baseline (mean) (1% QD, Week 12): 11.6
- difference in probability of IGA response vs vehicle (1% QD, Week 12): 60.1%
- patients rating itch moderately improved to very improved (1% QD, Week 12): 86%
- patients with minimum three-point improvement in itch NRS (1% QD, Week 12): 32%
- reduction in total severity score (mean change) (1% QD, Week 12): 5.5
- subjects reporting severity of AD symptoms as very improved (1% QD, Week 12): 59%
- IGA response rate (IGA 0 or 1 and ≥2-grade improvement) (1% QD, Week 12, NRI): 46%
- probability of achieving EASI75 (1% QD, Week 12): 80.7%
- probability of achieving IGA treatment success (1% QD, Week 12): 62.6%
- patients with 75% improvement in EASI score (1% QD, Week 12): 51%
- subjects rating pruritus symptoms very improved or moderately improved (1% groups, Week 12): 78-87%
- subjects with minimum 3-point improvement in itch/pruritus (Japanese population, 1% QD, Week 4 to Week 12): approximately 70%
- subjects rating severity of itch very improved or moderately improved (Tapinarof groups, Week 12): ≥ 78%
- subjects rating severity of eczema symptoms very improved or moderately improved (active treatment groups, Week 12): > 80%
- subjects rated by investigators as very improved or moderately improved (adolescent population, active treatment groups): ≥ 90%
